Data set [1] in a line: Solubility of the color former in oil (KMC-113). The data set is classed as physicochemical. As to conditions: in KMC-113 at 50°C. From the text:
To examine the solubility of a color former in oil, the solubility of benzoylleucomethylene blue in KMC-113 (product of Kureha Chemical Industries Co., Ltd.) as a typical solvent commonly employed, was investigated.
To examine the solubility in oil of the triarylmethane compounds of the present invention, the solubility in KMC-113 (product of Kureha Chemical Industries Co., Ltd.) as a typical solvent was examined.

A short description of data set [2]: Color formation on silica gel (TLC) and light resistance of the formed color. As to conditions: for light resistance: color formed on silica gel TLC. On the procedure:
The color in the Table is the color formed on silica gel.
To a dilute hydrochloric acid aqueous solution prepared by diluting 25 parts of 35% hydrochloric acid with 130 parts of water, 30 parts of 4,4'-bisdimethylaminobenzhydrol and 22 parts of methyl 3-dimethylaminobenzoate were dissolved and reacted at a temperature of from 50 to 60°C for 5 hours. Then, 10 parts of active carbon was added thereto, and the mixture was thoroughly mixed. After removing active carbon by filtration, 150 parts of 10% sodium hydroxide and 100 parts of toluene were added to the filtrate and thoroughly mixed. The toluene layer was separated, then washed with 100 parts of water and separated. Then, this toluene layer was thoroughly dried over anhydrous sodium salfate. Then, this toluene layer was concentrated, and 100 parts of methanol was added to the residue thereby obtained. Precipitated crystals were collected by filtration and recrystallized from a solvent mixture comprising 50 parts of methanol and 50 parts of acetone to obtain 35 parts of bis((4-dimethylamino)phenyl)-(2-methoxycarbonyl-4-dimethylaminophenyl)methane.

`CN(C)c1ccc2c(c1)Sc1cc(N(C)C)ccc1N2C(=O)c1ccccc1` [benzoylleucomethylene blue, reference compound] came in with a solubility in data set [1] of 2.5%.

With `CCCCOC(=O)c1cc(N(C)C)ccc1C(c1ccc(N(C)C)cc1)c1ccc(N(C)C)cc1` [Preparation Example 3, bis((4-dimethylamino)phenyl)-(2-n-butoxycarbonyl-4-dimethylaminophenyl)methane], the solubility entry in data set [1] is reported as “at least 10%”. Besides, in data set [2], the light resistance result is recorded as “excellent” and the “color formed on silica gel TLC” value is reported as “gradually formed a clear blue color”.

With `COC(=O)c1cc(N(C)C)ccc1C(c1ccc(N(C)C)cc1C)c1ccc(N(C)C)cc1C` [Preparation Example 4, bis((2-methyl-4-dimethylamino)phenyl)-(2-methoxycarbonyl-4-dimethylaminophenyl)methane], in data set [2], the light resistance entry is “excellent” and the “color formed on silica gel TLC” value is recorded as “gradually formed a clear blue color”.

For `CC(C)OC(=O)c1cc(N(C)C)ccc1C(c1ccc(N(C)C)cc1)c1ccc(N(C)C)cc1` [Preparation Example 2, bis((4-dimethylamino)phenyl)-(2-isopropoxycarbonyl-4-dimethylaminophenyl)methane], the solubility entry in data set [1] is “at least 10%”. In data set [2], the light resistance entry is listed as “excellent” and the “color formed on silica gel TLC” value is reported as “gradually formed a clear blue color”.

Regarding `CCOC(=O)c1cc(N(C)C)ccc1C(c1ccc(N(C)C)cc1C)c1ccc(N(C)C)cc1C` [Preparation Example 5, bis((2-methyl-4-dimethylamino)phenyl)-(2-ethoxycarbonyl-4-dimethylaminophenyl)methane], in data set [2], the light resistance result is “excellent” and the “color formed on silica gel TLC” value is recorded as “gradually formed a clear blue color”.

`COC(=O)c1cc(N(C)C)ccc1C(c1ccc(N(C)C)cc1)c1ccc(N(C)C)cc1` [Preparation Example 1, bis((4-dimethylamino)phenyl)-(2-methoxycarbonyl-4-dimethylaminophenyl)methane]: the solubility entry in data set [1] is recorded as “at least 10%”. Further, in data set [2], the light resistance entry is on record as “excellent” and the “color formed on silica gel TLC” value is recorded as “gradually formed a clear blue color”.

For the origin of these results see patent EP0486749A1, “Triarylmethane compounds and pressure sensitive recording material” (HODOGAYA CHEMICAL CO., LTD., priority 1991, dated 1992).
